Where a name gives a salt, the structure may show the parent alone. Values belong to the compound of their own block, whether it stands above or below them.
Columns and labels:
Assay type in all cases: physicochemical
[1] = Light illumination test (intense light, 4500±500 Lx); settings: for Stability (conclusion in words): intense light illumination, no obvious changes in appearance color, loss on drying, purity, relevant substances; for Appearance color / Loss on drying (%) / Purity (%) / Relevant substances: light 4500±500 Lx; for Loss on drying (%) / Purity (%) / Relevant substances: hydrochloride
From the text: Revaprazan hydrochloride crystalline form I is irradiated under such a condition that the light intensity is 4500±500 Lx, and is sampled on the 5th day and 10th day for detection, and the results are shown in Table 1. Revaprazan hydrochloride crystalline form II is irradiated under the condition that the light intensity is 4500±500Lx, and is sampled on the 5th day and 10th day for detection. Revaprazan hydrochloride polymorph III is irradiated under such a condition that the light intensity is 4500±500Lx, and is sampled on the 5th day and 10th day for detection. Revaprazan hydrochloride […] is irradiated under such a condition that the light intensity is 4500±500Lx, and is sampled on the 5th day and the 10th day for detection. Revaprazan hydrochloride crystalline form V is irradiated under the light intensity condition of 4500±500Lx; and is sampled on the 5th day and 10th day for detection.

[2] = High temperature test (60° C. incubator); settings: for Appearance color / Loss on drying (%) / Purity (%) / Relevant substances: 60° C., hydrochloride; for Stability (conclusion in words): high temperature, no obvious changes in appearance color, loss on drying, purity, relevant substances
Description: Revaprazan hydrochloride crystalline form I is placed in a 60° C. incubator, and is sampled on the 5th day and 10th day for detection, and the results are shown in Table 2. Revaprazan hydrochloride crystalline form II is placed in a 60° C. incubator, and is sampled on the 5th day and 10th day for detection, and the results are shown in Table 6. Revaprazan hydrochloride polymorph III is placed in an incubator of 60° C., and is sampled on the 5th day and the 10th day for detection. Revaprazan hydrochloride crystalline form IV is placed in an incubator of 60° C., and is sampled on the 5th day and the 10th day for detection. Revaprazan hydrochloride crystal form 4 is placed in an incubator of 60° C.; and is sampled on the 5th day and the 10th day for detection, and the results are shown in Table 23.

[3] = High humidity test (25° C., relative humidity 75±5%); settings: for Appearance color / Purity (%) / Relevant substances / Weight gain upon moisture absorption (%): 25° C., RH 75±5%; for Weight gain upon moisture absorption (in words): high humidity condition; for Stability (conclusion in words): high humidity, no obvious changes in appearance color, purity, relevant substances
Description: Revaprazan hydrochloride crystalline form I is placed in an incubator of 25° C. (relative humidity of 75±5%), and is sampled on the 5th day and 10th day for detection. Revaprazan hydrochloride crystalline form II is placed in an incubator of 25° C. (relative humidity of 75±5%), and is sampled on the 5th day and 10th day for detection. Revaprazan hydrochloride polymorph III is placed in an incubator of 25° C. (relative humidity of 75±5%), and is sampled on the 5th day and the 10th day for detection. Revaprazan hydrochloride crystalline form IV is placed in an incubator of 25° C. Revaprazan hydrochloride crystal form 4 is placed in an incubator of 25° C. (the relative humidity is 75±5%), and is sampled on the 5th day and the 10th day for detection.

[4] = Accelerated test (40±2° C., relative humidity 75±5%, 6 months, sealed polyethylene film bag); settings: for Appearance color / Purity (%) / Relevant substances: 40±2° C., RH 75±5%; for Purity (%) / Relevant substances: hydrochloride; for Stability (conclusion in words): accelerated test, no obvious changes in appearance color, purity, relevant substances
Description: Revaprazan hydrochloride crystalline form I is sealed in a polyethylene film bag, is placed for 6 months under the conditions that the temperature is 40±2° C. and the relative humidity is 75±5%, and is respectively sampled at the end of the 1st Month, the 2nd Month, the 3rd Month and the 6^thMonth for detection; and the results are shown in Table 4. Revaprazan hydrochloride crystalline form II is sealed in a polyethylene film bag and is placed for 6 months under the conditions that the temperature is 40±2° C. and the relative humidity is 75±5%, and is respectively sampled at the end of the 1st Month, the 2nd Month, the 3rd Month and the 6th Month for detection; and the results are shown in Table 8. Revaprazan hydrochloride crystalline form III is sealed in a polyethylene film bag, is placed for 6 months under the conditions that the temperature is 40±2° C. and the relative humidity is 75±5%, and is sampled at the end of the 1st Month, the 2nd Month, the 3rd Month and the 6th Month for detection. Revaprazan hydrochloride crystalline form IV is sealed in a polyethylene film bag, is placed for 6 months under the conditions that the temperature is 40±2° C. and the relative humidity is 75±5%, and is sampled at the end of the 1st Month, the 2nd Month, the 3rd Month and the 6th Month for detection. Revaprazan hydrochloride crystalline form V is sealed in a polyethylene film bag and is placed for 6 months under the condition that the temperature is 40±2° C. and the relative humidity is 75±5%, and is sampled at the end of the 1st month, the 2nd month, the 3rd month and the 6th month for detection, and the results are shown in Table 20.

[5] = 5th day, listed as revaprazan hydrochloride polymorph III
[6] = 10th day, listed as revaprazan hydrochloride polymorph III
[7] = Day 0, listed as revaprazan hydrochloride polymorph III

Stability (conclusion in words) [1]: stable
Appearance color ([1]; 5th day): White powder
Loss on drying (%) [1, 5]: 0.25%
Purity (%) [1, 5]: 99.92%
Relevant substances [1, 5]: Undetected
Appearance color ([1]; 10th day): White powder
Loss on drying (%) [1, 6]: 0.29%
Purity (%) [1, 6]: 99.95%
Relevant substances [1, 6]: Undetected
Appearance color ([1]; Day 0): White powder
Loss on drying (%) [1, 7]: 0.28%
Purity (%) [1, 7]: 99.95%
Relevant substances [1, 7]: Undetected
Appearance color [2, 5]: White powder
Loss on drying (%) [2, 5]: 0.26%
Purity (%) [2, 5]: 99.94%
Relevant substances [2, 5]: Undetected
Appearance color [2, 6]: White powder
Loss on drying (%) [2, 6]: 0.26%
Purity (%) [2, 6]: 99.92%
Relevant substances [2, 6]: Undetected
Appearance color [2, 7]: White powder
Loss on drying (%) [2, 7]: 0.22%
Purity (%) [2, 7]: 99.95%
Relevant substances [2, 7]: Undetected
Stability (conclusion in words) [2]: stable
Appearance color ([3]; 5th day): White powder
Purity (%) ([3]; 5th day, hydrochloride): 99.92%
Relevant substances ([3]; 5th day, hydrochloride): Undetected
Weight gain upon moisture absorption (%) ([3]; 5th day, hydrochloride): 0.47%
Appearance color ([3]; 10th day): White powder
Purity (%) ([3]; 10th day, hydrochloride): 99.94%
Relevant substances ([3]; 10th day, hydrochloride): Undetected
Weight gain upon moisture absorption (%) ([3]; 10th day, hydrochloride): 0.59%
Appearance color ([3]; Day 0): White powder
Weight gain upon moisture absorption (%) ([3]; Day 0): 0%
Purity (%) ([3]; Day 0, hydrochloride): 99.95%
Relevant substances ([3]; Day 0, hydrochloride): Undetected
Weight gain upon moisture absorption (in words) [3]: slight weight gain
Stability (conclusion in words) [3]: stable
Appearance color ([4]; 1st month): White powder
Purity (%) ([4]; 1st month): 99.92%
Relevant substances ([4]; 1st month): Undetected
Appearance color ([4]; 2nd month): White powder
Purity (%) ([4]; 2nd month): 99.91%
Relevant substances ([4]; 2nd month): Undetected
Appearance color ([4]; 3rd month): White powder
Purity (%) ([4]; 3rd month): 99.93%
Relevant substances ([4]; 3rd month): Undetected
Appearance color ([4]; 6th month): White powder
Purity (%) ([4]; 6th month): 99.95%
Relevant substances ([4]; 6th month): Undetected
Appearance color ([4]; Month 0): White powder
Purity (%) ([4]; Month 0): 99.95%
Relevant substances ([4]; Month 0): Undetected
Stability (conclusion in words) [4]: stable
SMILES: Cc1nc(Nc2ccc(F)cc2)nc(N2CCc3ccccc3C2C)c1C (single isomer, unassigned) [revaprazan hydrochloride crystalline form III]

Stability (conclusion in words) [1]: stable
Appearance color ([1]; 5th day): White powder
Loss on drying (%) ([1]; 5th day): 0.26%
Purity (%) ([1]; 5th day): 99.97%
Relevant substances ([1]; 5th day): Not detected
Appearance color ([1]; 10th day): White powder
Loss on drying (%) ([1]; 10th day): 0.28%
Purity (%) ([1]; 10th day): 99.94%
Relevant substances ([1]; 10th day): Not detected
Appearance color ([1]; Day 0): White powder
Loss on drying (%) ([1]; Day 0): 0.25%
Purity (%) ([1]; Day 0): 99.94%
Relevant substances ([1]; Day 0): Not detected
Appearance color ([2]; 5th day): White
Loss on drying (%) ([2]; 5th day): 0.27%
Purity (%) ([2]; 5th day): 99.97%
Relevant substances ([2]; 5th day): Not detected
Appearance color ([2]; 10th day): White
Loss on drying (%) ([2]; 10th day): 0.29%
Purity (%) ([2]; 10th day): 99.95%
Relevant substances ([2]; 10th day): Not detected
Appearance color ([2]; Day 0): White
Loss on drying (%) ([2]; Day 0): 0.23%
Purity (%) ([2]; Day 0): 99.94%
Relevant substances ([2]; Day 0): Not detected
Stability (conclusion in words) [2]: stable
Appearance color ([3]; 5th day): White powder
Purity (%) ([3]; 5th day, hydrochloride): 99.93%
Relevant substances ([3]; 5th day, hydrochloride): Not detected
Weight gain upon moisture absorption (%) ([3]; 5th day, hydrochloride): 0.42%
Appearance color ([3]; 10th day): White powder
Purity (%) ([3]; 10th day, hydrochloride): 99.95%
Relevant substances ([3]; 10th day, hydrochloride): Not detected
Weight gain upon moisture absorption (%) ([3]; 10th day, hydrochloride): 0.64%
Appearance color ([3]; Day 0): White powder
Weight gain upon moisture absorption (%) ([3]; Day 0): 0%
Purity (%) ([3]; Day 0, hydrochloride): 99.94%
Relevant substances ([3]; Day 0, hydrochloride): Not detected
Weight gain upon moisture absorption (in words) [3]: slight weight gain
Stability (conclusion in words) [3]: stable
Appearance color ([4]; 1st month): White powder
Purity (%) ([4]; 1st month): 99.93%
Appearance color ([4]; 2nd month): White powder
Purity (%) ([4]; 2nd month): 99.95%
Appearance color ([4]; 3rd month): White powder
Purity (%) ([4]; 3rd month): 99.96%
Appearance color ([4]; 6th month): White powder
Purity (%) ([4]; 6th month): 99.95%
Appearance color ([4]; Month 0): White powder
Purity (%) ([4]; Month 0): 99.94%
Stability (conclusion in words) [4]: stable
SMILES: Cc1nc(Nc2ccc(F)cc2)nc(N2CCc3ccccc3C2C)c1C (single isomer, unassigned) [revaprazan hydrochloride crystalline form II]

Reference: patent publication US20170334877A1, “REVAPRAZAN HYDROCHLORIDE POLYMORPHS AND PREPARATION METHOD THEREFOR” (JIANGSU TASLY DIYI PHARMACEUTICAL CO., LTD., priority 2014, published 2017)
